Earlier results on two molecules are cited in patent publication US11185565B2, “Compositions including milk thistle and methods of use” (GM Pharmaceuticals, Inc., priority 2019, dated 2021).

Molecules are shown by their SMILES.

The conditions of series [1]: addition of chromium to carbohydrate-rich meals.
The conditions of series [2]: additional chromium in drinking water; obese and insulin resistant mammals.
The conditions of series [3]: deficiency in PQQ, mammals.

With `[Cr]` [chromium], the “reduction in blood sugar after the carbohydrate-rich meals” value in series [1] is listed as above 20%. In series [2], the “glucose disposal rates and insulin-stimulated signaling in skeletal muscles” value is “significantly improved”.

Consider `O=C(O)c1cc(C(=O)O)c2c(n1)C(=O)C(=O)c1cc(C(=O)O)[nH]c1-2.[Na].[Na]` [PQQ, pyrroloquinoline quinone disodium], for which the “decrease in metabolic rate” value in series [3] is on record as around 10%.
